Structures are written as SMILES.

This assay addresses Ras-related C3 botulinum toxin substrate 1 (Homo sapiens) (UniProt P63000). In words: wildtype Rac1 GTP binding inhibitors, dose response, biochemical, multiplex bead flow cytometry (AID 1340). Conditions: GST-Rac1 beads, Bodipy-FL-GTP binding.

Consider `NC(=S)N=Nc1c(O)[nH]c2ccc(F)cc12`, for which the half-maximal effective concentration (EC50) is 3.46 µM.
For the molecule `COc1cc(/C=N/Nc2nnc3c(n2)[nH]c2ccccc23)ccc1O`, the concentration for a half-maximal effect (EC50) is 0.634 µM.
In the case of `COc1ccc(C(=O)/C=C/Nc2ccc(S(=O)(=O)Nc3nc(C)cc(C)n3)cc2)cc1OC`, the EC50 is 3.12 µM.

For the origin of these results see PubChem BioAssay AID1340 (NMMLSC, 2008).
